Holding throughout (type): functional
The species entered for assay [1] is Cavia porcellus. Briefly: Inhibitory activity in guinea pig longitudinal muscle preparation, n=2. The conditions noted are these: Muscle tissue.
Assay [2] is filed under the species Mus musculus. The assay is described as follows: Inhibitory activity in mouse vas deferens, n=4.
The species named for assay [3] is Mus musculus. The assay is described as follows: Agonist activity in mouse vas deferens at a concentration of 200 nM expressed as percent maximal response.
The species named for assay [4] is Cavia porcellus. Briefly: Agonist activity in guinea pig ileum at a concentration of 1 uM expressed as percent maximal response.

This is an account of results in ChEMBL document CHEMBL1122705, “Synthesis and pharmacological evaluation of an 8 beta-bis(2-chloroethyl)amino opiate as a nonequilibrium opioid receptor probe” (J Med Chem, 1984).

Usually IC50 stands for the concentration at which inhibition is half-maximal. Lower therefore signals inhibition by little substance. As for `CN1CCC23c4c5ccc(O)c4O[C@H]2C=C[C@H](N=[N+]=[N-])[C@H]3C1C5` (some centres undefined), the IC50 is 335 nM in the assay listed under Cavia porcellus [1] and 46 nM in the assay listed under Mus musculus [2].

With `CN1CCC23c4c5ccc(O)c4O[C@H]2C=C[C@H](N(CCCl)CCCl)[C@H]3C1C5` (some centres undefined), the Activity worked out at 25% in the assay filed under Mus musculus [3] and 15% in the assay listed under Cavia porcellus [4].
